Marks after values point to notes of the source that are not given here.
Experiments:
Schizophrenia Patients [1] = assay: Double-blind, placebo-controlled 6-week treatment of schizophrenia patients: clinical symptoms and cognition (SANS, PANSS, CGI, Wisconsin Card Sort Test); format: in vivo, human; details: for cognition, PANSS-cognitive subscale and Wisconsin Card Sort Test: 6 weeks of treatment; for WCST (Wisconsin Card Sort Test), change: initiation versus end of the 6-week study; for WCST (Wisconsin Card Sort Test), change / Cognitive symptoms (PANSS-cognitive subscale), change / Positive Symptoms (PANSS-positive subscale), change / reduction of the negative symptoms (on the SANS scale) / reduction of the positive symptoms (on the PANSS-positive subscale) / CGI, score after treatment: D-serine 30, D-alanine 60-100, N-methylglycine 30 mg/kg/day; for Negative Symptoms (SANS), change / Cognitive symptoms (PANSS-cognitive subscale), change / Positive Symptoms (PANSS-positive subscale), change / reduction of the negative symptoms (on the SANS scale) / reduction of the positive symptoms (on the PANSS-positive subscale): once a day by mouth for 6 weeks; for Negative Symptoms (SANS), change: D-serine 30 mg/kg/day, D-alanine 60-100 mg/kg/day, N-methylglycine 30 mg/kg/day, added to stable antipsychotic; for CGI, score after treatment: value after the arrow: after 6 weeks, once a day by mouth; for CGI, baseline score: value before the arrow: baseline of the treatment group
Source text: (§1) This study employed 37 patients who were diagnosed as having schizophrenia. All patients fulfilled the DSM-IV diagnosis of schizophrenia (APA, 1994, Diagnostic and Statistical Manual of Mental Disorders, Fourth Edition, Washington, D.C.). All of the patients also fulfilled the criteria of primary deficit syndrome, with a SANS score of more than 40 (Kirkpatrick et al., 1989, Psychiatry Research 30:119-123; Andreasen, 1983, Scales for the Assessment of Negative Symptoms (SANS), Iowa City, Iowa). All of the patients were poorly responsive to treatment by other antipsychotic drugs, and had been kept on a stable dose of an antipsychotic drug for at least 3 months prior to enrollment in this study.
(§2) Several scales were used to assess the severity of the disorder in each patient. At the beginning of the study (i.e., the baseline), the PANSS, SANS, and […] were used. Each scale also was completed at the end of each 2-week period throughout the study. These assessments were performed by a psychiatrist who was blind to the treatment assignment. The Wisconsin Card Sort Test was used to provide a cognitive rating of the patients; in general, schizophrenic patients perform poorly on this test. The Wisconsin Card Sort Test was administered only at the initiation of the study and at the end of the 6-week study. To measure side effects, the Simpson-Angus Scale was used to measure extrapyramidal symptoms (EPS; Simpson et al., 1970, Acta Psychiatrica Scandinavia Suppl. 212:11-19). The Abnormal Involuntary Movement Scale (AIMS) was used to measure dyskinesia (Simpson et al., 1970, Acta Psychiatrica Scandinavia Suppl. 212:11-19). The Barnes Scale was used to measure akathesia (Barnes, 1989, Brit. J. Psychiatry 154:672-676). The side effects of D-serine, D-alanine, and N-methylglycine treatments were assessed biweekly according to the UKU side effects rating scale (Scandinavian Society of Psychopharmacology Committee of Clinical Investigation: The UKU side effect rating scale: scale for the registration of unwanted effects of psychotropics. Acta. Psychiatr. Scand. 1987; Suppl. 334:81-94).
(§3) Using double-blind conditions, the patients were randomly assigned to receive placebo (fruit juice), D-serine (30 mg/kg/day), D-alanine (60-100 mg/kg/day), or N-methylglycine (30 mg/kg/day) once a day by mouth for a period of 6 weeks. As indicated by the results shown in Table 1, treatment with D-serine, D-alanine, or N-methylglycine improved the schizophrenic symptoms and cognitive deficit of the patients. […] These reductions in the negative and positive symptoms represented clinically significant improvement.

Schizophrenia Patients [2] = details: human, in vivo; for AIMS (dyskinesia), score after treatment / Barnes Scale (akathesia), score after treatment / EPS (Simpson-Angus Scale), score after treatment: 6 weeks
Source text: as §1, §2, §3

Structure (SMILES)	cognition, PANSS-cognitive subscale and Wisconsin Card Sort Test (Schizophrenia Patients [1])	WCST (Wisconsin Card Sort Test), change (Schizophrenia Patients [1])	Negative Symptoms (SANS), change (Schizophrenia Patients [1])	Cognitive symptoms (PANSS-cognitive subscale), change (Schizophrenia Patients [1])	Positive Symptoms (PANSS-positive subscale), change (Schizophrenia Patients [1])	reduction of the negative symptoms (on the SANS scale) (Schizophrenia Patients [1])	reduction of the positive symptoms (on the PANSS-positive subscale) (Schizophrenia Patients [1])	CGI, score after treatment (Schizophrenia Patients [1])	CGI, baseline score (Schizophrenia Patients [1])	AIMS (dyskinesia), baseline score (Schizophrenia Patients [2])	Barnes Scale (akathesia), baseline score (Schizophrenia Patients [2])	EPS (Simpson-Angus Scale), baseline score (Schizophrenia Patients [2])	side effects, UKU scale (Schizophrenia Patients [2])	significant side effects after treatment of schizophrenia patients (Schizophrenia Patients [2])	tardive dyskinesia, extrapyramidal and akathesia symptoms (Schizophrenia Patients [2])	AIMS (dyskinesia), score after treatment (Schizophrenia Patients [2])	Barnes Scale (akathesia), score after treatment (Schizophrenia Patients [2])	EPS (Simpson-Angus Scale), score after treatment (Schizophrenia Patients [2])
C[C@@H](N)C(=O)O [D-alanine]	improved cognition	+0.5* category	−12%*	−11%*	−11%*	11%	12%	2.8	3.9	0.5	0.4	3.1-->3.1	no side effects were noted	no significant side effects were detected	no newly emergent tardive dyskinesia or worsening of extrapyramidal or akathesia symptoms	0.1	0.6	3.1-->3.1
N[C@H](CO)C(=O)O [D-serine]	improved cognition	+0.9 category	−21%*	−12%*	−17%*	21%	17%	2.6	4.8	0.3-->0.3	0.4	1.4	no side effects were noted	no significant side effects were detected	no newly emergent tardive dyskinesia or worsening of extrapyramidal or akathesia symptoms	0.3-->0.3	0.8	1.7
CNCC(=O)O [N-methylglycine]	improved cognition	+0.7* category	−20%*	−12%*	−15%*	20%	15%	2.7	4.2	0.4	0.5	2.1-->2.1	no side effects were noted	no significant side effects were detected	no newly emergent tardive dyskinesia or worsening of extrapyramidal or akathesia symptoms	0.3	0.6	2.1-->2.1

Source: patent US7704978B2, “Methods for treating neuropsychiatric disorders” (The General Hospital Corporation, priority 1998, dated 2010)
